Results published in patent US20090143285A1, “TARGET PROTEIN AND TARGET GENE FOR DRUG DISCOVERY AND SCREENING METHOD” (REVERSE PROTEOMICS RESEARCH INSTITUTE CO., LTD., priority 2005, published 2009).
Positions count from the first letter of the chain named. Entries after “also recorded” stand apart in the source; their conditions may differ. Read-outs that look alike come from different tables or passages of the source.

Tests used:
FLJ38897-derived protein = target: T1, FLJ38897-derived protein (Homo sapiens, UniProt P57764); test: SEC/MS interaction analysis, FLJ38897-derived protein (GSDMDC1); format: binding; conditions: spin column method; mixture with protein vs buffer solution alone; data not shown
T1 construct: His-tag (N); made in house; host or cells: Escherichia coli BL21star(DE3)pLysS
T1 sequence (P57764 265-484): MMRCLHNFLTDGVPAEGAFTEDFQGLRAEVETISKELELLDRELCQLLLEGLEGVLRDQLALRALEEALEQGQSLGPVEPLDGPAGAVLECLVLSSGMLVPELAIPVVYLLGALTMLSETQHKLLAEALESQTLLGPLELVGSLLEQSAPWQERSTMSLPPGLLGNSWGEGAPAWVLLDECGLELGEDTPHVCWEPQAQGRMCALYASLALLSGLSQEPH
Text: (§1) To analyze the interactions between commonly used drugs and proteins expressed from human full-length cDNA clones while keeping both the proteins and the compounds in non-modified, non-immobilized state, size exclusion chromatography (SEC) and mass analysis were used in combination. The specific procedures are shown below.
(§2) The compound-protein mixture prepared in step 1 was subjected to chromatography using an SEC column, the compound and the protein were separated by SEC, and the compound that interacted with the bound compound or protein contained in the protein fraction was analyzed using a mass analyzer.
(§3) Protein concentrations were measured using BCA Protein Assay (PIERCE), in consideration of the purity calculated by SDS-PAGE.
(§4) Mass analysis was performed using LCQ DECA XP (Thermoelectron) or Q-TOF micro (Micromass), equipped with an ESI probe. The LC pump used was Agilent 1100 (Yokogawa Analytical Systems), and the autosampler used was HTC-PAL (CTC Analytics) equipped with a cooling stacker. The SEC column used was a micro-LC column or a 384-well spin column. […]
(§5) In the 384-well spin column method, Unifilter 100 (Whatman), packed with 10 μL (dry volume) of Bio-Gel P6 (BIO-RAD) and swollen with milliQ water, was used as the SEC column. […] The SEC spin column was mounted on an acetonitrile-aliquoted 384-well U-bottom plate and centrifuged; the SEC spin column filtrate, which is a protein fraction, was recovered in 50% acetonitrile. The protein precipitate produced by the acetonitrile was removed via centrifugation and filtration for deproteinization; the resulting filtrate was concentrated by centrifugal concentration and re-dissolved in 10 μL of 50% methanol to obtain a mass analysis sample. The mobile phase supplied to the mass analyzer was 0.1% formic acid/50% methanol solution in the positive ion mode, and 0.1% ammonia/50% methanol solution in the negative ion mode; these mobile phases were used at a flow rate of 40 μL/min. 2-μL of mass analysis samples were injected using an autosampler at 2-minute intervals; the mass spectral intensity of the compound was measured to retrieve the spectral intensity of the pharmaceutical compound contained in the SEC spin column filtrate (protein fraction eluted from SEC).

FLJ41991-derived protein = target: T2, FLJ41991-derived protein (Homo sapiens, UniProt P57764, E293G); test: SEC/MS interaction analysis, FLJ41991-derived protein (GSDMDC1); format: binding; conditions: for interaction judged from spectrum intensity of the compound in the SEC spin column filtrate (protein fraction eluted from SEC): spin column method, doses of both compound and protein varied
T2 construct: His-tag (N); made in house; host or cells: Escherichia coli BL21star(DE3)pLysS (pDEST17)
T2 sequence (P57764 265-484 E293G): T1 sequence (P57764 265-484) with E29G
Text: as §1, §2, §3, §4, §5

[1] = test system: FLJXXXXX-derived proteins; test: SEC/MS spin column interaction analysis of FLJXXXXX-derived proteins and various compounds (Tables 30-1 to 30-4); format: binding, human
FLJ20972-derived protein = test system: FLJ20972-derived protein
Text: as §1, §2, §3
Mass analysis was performed using LCQ DECA XP (Thermoelectron) or Q-TOF micro (Micromass), equipped with an ESI probe. The LC pump used was Agilent 1100 (Yokogawa Analytical Systems), and the autosampler used was HTC-PAL (CTC Analytics) equipped with a cooling stacker. The SEC column used was a micro-LC column or a 384-well spin column.
The SEC column used for the micro-LC method was a TSKgel super SW2000 (TOSOH) cartridge column (1.0 mm ID×10 mm) or a TSKgel super SW2000 (TOSOH) column (1.0 mm ID×30 mm), with 10 mM ammonium acetate aqueous solution serving as the mobile phase. A conditioning solvent (0.5% formic acid/methanol solution in the positive ion mode, 0.5% ammonia/methanol solution in the negative ion mode) was mixed downstream of the SEC column via a Tee connector; the column was connected to the ESI of the mass analyzer. The flow rate was set at 40 μL/min for the SEC column side, and 10 μL/min for the conditioning solvent side.
Specifically, if the protein and the compound interact with each other, the acceleration of the elution of the compound molecules that are bound to the protein when the protein is overtaking the compound in the SEC column occurs, resulting in a change in the mass chromatogram of the compound depending on the presence or absence of the protein.
as §5

[2] = compound 12.5 μM, protein 10 μM
[3] = compound 12.5 μM, protein 25 μM
[4] = compound 62.5 μM, protein 10 μM
[5] = compound 62.5 μM, protein 25 μM
[6] = SEC spin column filtrate, spectral intensity increased with doses of compound and protein

| SMILES | interaction judged from mass spectrum peak intensity of the compound in the spin column filtrate (FLJ38897-derived protein) | spectrum intensity of the compound in the SEC spin column filtrate (FLJ41991-derived protein; compound 12.5 μM, protein 0 μM) | spectrum intensity of the compound in the SEC spin column filtrate (FLJ41991-derived protein; compound 12.5 μM, protein 5 μM) | spectrum intensity of the compound in the SEC spin column filtrate (FLJ41991-derived protein; [2]) | spectrum intensity of the compound in the SEC spin column filtrate (FLJ41991-derived protein; [3]) | spectrum intensity of the compound in the SEC spin column filtrate (FLJ41991-derived protein; compound 25 μM, protein 0 μM) | spectrum intensity of the compound in the SEC spin column filtrate (FLJ41991-derived protein; compound 25 μM, protein 5 μM) | spectrum intensity of the compound in the SEC spin column filtrate (FLJ41991-derived protein; compound 25 μM, protein 10 μM) | spectrum intensity of the compound in the SEC spin column filtrate (FLJ41991-derived protein; compound 25 μM, protein 25 μM) | spectrum intensity of the compound in the SEC spin column filtrate (FLJ41991-derived protein; compound 62.5 μM, protein 0 μM) | spectrum intensity of the compound in the SEC spin column filtrate (FLJ41991-derived protein; compound 62.5 μM, protein 5 μM) | spectrum intensity of the compound in the SEC spin column filtrate (FLJ41991-derived protein; [4]) | spectrum intensity of the compound in the SEC spin column filtrate (FLJ41991-derived protein; [5]) | interaction judged from spectrum intensity of the compound in the SEC spin column filtrate (protein fraction eluted from SEC) (FLJ41991-derived protein) | FLJ No of the derived protein with which the compound was judged to exhibit a concentration-dependent interaction [1, 6] | other results |
| --- | --- | --- | --- | --- | --- | --- | --- | --- | --- | --- | --- | --- | --- | --- | --- | --- |
| COc1ccc(CCN2CCC(Nc3nc4ccccc4n3Cc3ccc(F)cc3)CC2)cc1 [astemizole] | there was an interaction | 24899 | 60014 | 160855 | 908771 | 19274 | 89714 | 732296 | 2056843 | 27212 | 361364 | 2309029 | 5171023 | concentration-dependent interaction | FLJ38897; also recorded: FLJ41991 | – |
| CN1[C@@H]2CC[C@H]1C[C@@H](OC(c1ccccc1)c1ccccc1)C2 [benztropine] | there was an interaction | 143943 | 220928 | 285013 | 489071 | 152947 | 491863 | 560686 | 1352077 | 911727 | 1861766 | 2757526 | 3061987 | concentration-dependent interaction | FLJ38897; also recorded: FLJ41991 | – |
| CN(C)CC/C=C1/c2ccccc2Sc2ccc(Cl)cc21 [chlorprothixene] | there was an interaction | 178622 | 175333 | 226245 | 393132 | 161141 | 149738 | 277798 | 490640 | 156021 | 210998 | 626223 | 2564975 | concentration-dependent interaction | FLJ38897; also recorded: FLJ41991 | – |
| OCCN1CCN(CCCN2c3ccccc3Sc3ccc(C(F)(F)F)cc32)CC1 [fluphenazine] | there was an interaction | 87861 | 162795 | 434899 | 1101486 | 193639 | 276524 | 843648 | 1778376 | 200313 | 1055670 | 3173659 | 6405132 | concentration-dependent interaction | FLJ38897; also recorded: FLJ41991 | – |
| CN(C)C(=O)C(CCN1CCC(O)(c2ccc(Cl)cc2)CC1)(c1ccccc1)c1ccccc1 [loperamide] | there was an interaction | 75412 | 200285 | 950587 | 1688197 | 263744 | 863800 | 1856141 | 4462655 | 1579322 | 3520629 | 6073080 | 9496680 | concentration-dependent interaction | – | FLJ No of the derived protein with which the compound was judged to exhibit a concentration-dependent interaction [1]: FLJ41991; also recorded: FLJ38897 |
| C1CCC(C(CC2CCCCN2)C2CCCCC2)CC1 (centres unmarked) [perhexyline] | there was an interaction | – | – | – | – | – | – | – | – | – | – | – | – | – | – | FLJ No of the derived protein with which the compound was judged to exhibit a concentration-dependent interaction ([1]; SEC spin column filtrate, spectral intensity increased with doses of compound and protein, listed as perhexiline): FLJ37909; also recorded: FLJ38897 |
| CNCCCC1c2ccccc2C=Cc2ccccc21 [protriptyline] | – | – | – | – | – | – | – | – | – | – | – | – | – | – | – | spectrum intensity of the compound in the SEC spin column filtrate (FLJ20972-derived protein; compound 12.5 μM, protein 0 μM): 39179; spectrum intensity of the compound in the SEC spin column filtrate (FLJ20972-derived protein; compound 12.5 μM, protein 5 μM): 27260; spectrum intensity of the compound in the SEC spin column filtrate (FLJ20972-derived protein; [2]): 39545; spectrum intensity of the compound in the SEC spin column filtrate (FLJ20972-derived protein; [3]): 44522; spectrum intensity of the compound in the SEC spin column filtrate (FLJ20972-derived protein; compound 25 μM, protein 0 μM): 53214; spectrum intensity of the compound in the SEC spin column filtrate (FLJ20972-derived protein; compound 25 μM, protein 5 μM): 76771; spectrum intensity of the compound in the SEC spin column filtrate (FLJ20972-derived protein; compound 25 μM, protein 10 μM): 105694; spectrum intensity of the compound in the SEC spin column filtrate (FLJ20972-derived protein; compound 25 μM, protein 25 μM): 132099; spectrum intensity of the compound in the SEC spin column filtrate (FLJ20972-derived protein; compound 62.5 μM, protein 0 μM): 239324; spectrum intensity of the compound in the SEC spin column filtrate (FLJ20972-derived protein; [4]): 390017; spectrum intensity of the compound in the SEC spin column filtrate (FLJ20972-derived protein; [5]): 754873; interaction judged from spectrum intensity of the compound in the SEC spin column filtrate (protein fraction eluted from SEC) (FLJ20972-derived protein; spin column method, doses of both compound and protein varied): concentration-dependent interaction |
